Assay results: patent US8461176B2, “Enantiomerically enriched aryloazol-2-yl cyanoethylamino compounds, method of making and method of using thereof” (Merial Limited, priority 2008, dated 2013)
≈ marks a conversion by molar mass, not a printed value.

Key:
Haemonchus contortus [1] = experiment: Method A: screening of activity against Haemonchus contortus L1 larvae in microtitre plate (development to L3 / motility); settings: Haemonchus contortus, 96 h, 4 days assessment; for inhibition at 0.04 ppm: test concentration 0.04 ppm; for inhibition at 0.01 ppm: test concentration 0.01 ppm; for inhibition at 0.6 ppm: test concentration 0.6 ppm
Description: Method A: Screening Method to Test Activity of Compounds Against Haemonchus contortus.

Haemonchus contortus [2] = experiment: Method B: activity against Haemonchus contortus in vivo in Mongolian gerbil; parameters: species or system Mongolian gerbil (Meriones unguiculatus); settings: po, 72 h, oral gavage, read-out: reduction in nematode infection
Experimental: Method B: Screening Method to Test Activity of Compounds Against Haemonchus contortus In Vivo in Mongolian Gerbil (Meriones unguiculatus).
Mongolian gerbils, at least five weeks old, were immunosuppressed and artificially infected with ca. 1000 ensheathed Haemonchus contortus third instar larvae. Six days after infection, the Mongolian gerbils were treated by oral gavage with the test compounds, dissolved in a mixture of 2 parts DMSO and 1 part polyethylene glycol (PEG400), at doses of 100 mg/kg and dissolved in pure polyethylene glycol (PEG400) at doses of 10 and 1 mg/kg. Mongolian gerbils treated only with the placebo (2 parts DMSO and 1 part PEG400 or pure PEG400) served as controls. On day 9 (3 days after treatment) the jirds were euthanized and necropsied for recovery of parasites from the stomach. Efficacy was calculated as the average % reduction in the number of worms in each test group compared with the average number of worms from the control group. […] Compound numbers 1.001, 1.008, 1.012, 1.013 and 1.014 provided at least 95% reduction in nematode in Mongolian gerbils treated by oral gavage with test article at a dose of 100 mg/kg. Compound numbers 1.012, 1.033, 1.064, 2.008, 2.037, 2.038, 2.040, 2.041, 3.001 provided at least 95% reduction in nematode infection at a dose of 10 mg/kg. Compound numbers 1.094, 1.096, 2.048, 3.001, 3.007 and 3.009, provided at least 95% reduction in nematode infection at a dose of 1 mg/kg. Compound numbers 3.006, 3.017 and 3.019 provided at least 95% reduction in nematode infection at a dose of 0.5 mg/kg. Compound numbers 3.005, 3.011 and 3.012 provided at least 95% reduction in nematode infection at a dose of 0.3 mg/kg. The eutomer compound number 3.024 provided at least 95% reduction in nematode infection at a dose of 0.1 mg/kg.

[3] = Feed solubility in ethanol (preparative chiral separation); format: physicochemical; settings: organic solvent or mixture, with stirring and heating
Experimental: The feed solution was filtered through a 0.2 μm filter before use. The enantiomers were separated using a CHIRALPAK®AD® column (CHIRAL Technologies Inc., 20 μm particle size of amylose tris(3,5-dimethylphenylcarbamate) polysaccharide CHIRALPAK®AD® stationary phase, 5 cm internal diameter, 50 cm length at 25° C. and flow rate of 110 mL/min) with injection volume of 65 mL every 11 min. The fractions collected from the chromatographic process for each of the two chromatographic eluting peaks were concentrated using a a 20 L rotary evaporator at 40° C. and 50 mbar. After solvent removal, the products were dried to constant weight in a vacuum oven at 40° C. The target eutomer (+)-N-[2-(6-Bromo-2H-pyrazolo[4,3-b]pyridin-2-yl)-1-cyano-1-methylethyl]-4-trifluoromethoxybenzamide was isolated from the first eluting peak with a recovery yield of 89.0% (19.3 g). […] The distomer (−)-N-[2-(6-Bromo-2H-pyrazolo[4,3-b]pyridin-2-yl)-1-cyano-1-methylethyl]-4-trifluoromethoxybenzamide was isolated from the second eluting peak with a recovery yield of 94.5% (20.5 g). The percent enantiomeric excess of the distomer is 98.8% as measured via analytical chiral HPLC using a CHIRALPAK®AD® column (CHIRAL Technologies Inc., 4.6×250 mm, at 30° C., flow rate of 0.7 mL/min of EtOH mobile phase, retention time=12.5 min).

[4] = tested on: ivermectin-resistant Trichostrongylus columbriformis; experiment: Method I: sheep in vivo, ivermectin-resistant Trichostrongylus colubriformis; settings: ivermectin orally at 0.2 mg/kg
Description: (§1) Method I: Screening Method to Test Activity of Compounds Against Ivermectin-Resistant Haemonchus contortus, Ostertagia circumcincta, and Trichostrongylus colubriformis In Vivo in Sheep.
(§2) Sheep were challenged orally with infective 3rd stage larvae (L3) of Ostertagia circumcincta (˜3,000-6,000 infective L3 per animal) on Dat −28, Haemonchus contortus (˜2,000-4,000 infective L3 per animal) on Dat −25, and Trichostrongylus colubriformis (˜3,000-6,000 infective L3 per species per animal) on Dat −23. The inoculation schedule was designed so that nematodes were expected to be in the adult stage on Day 0. Test compounds were dissolved in a mixture of DMSO/Corn oil (1:1) at a concentration of 10 mg/mL. All treatments were administered orally once on Day 0. At sacrifice on Day 14 the abomasum, small intestine and large intestine (including cecum) were removed. Nematode counts were conducted on 10% (abomasal and small intestinal content, abomasal soak) or 20% aliquots (large intestinal content). All nematodes were speciated, or assigned to species based on location of recovery (adult females, fourth-stage larvae) for a total count per species. Efficacy was calculated as the % reduction in the mean number of worms in each test group compared with the mean number of worms recovered from the control group. […]

Haemonchus placei = experiment: Method H: cattle in vivo, Haemonchus placei; settings: ivermectin alone, 0.2 mg/kg (200 μg/kg) subcutaneously
Description: (§3) Method H: Screening Method to Test Activity of Compounds Against Haemonchus placei, Ostertagia ostertagi, Trichostrongylus axei, Cooperia punctata, Bunostomum phlebotomum, Oesophagostomum radiatum, Dictyocaulus viviparus, and Nematodirus helvetianus In Vivo in Cattle.
(§4) Calves were challenged intra-aurally with larvae from Bunostomum phlebotomum (500-1000 L3 per animal) on Dat −56; and orally with larvae from Oesophagostomum radiatum (1,000-2,000 infective L3 per animal) on Dat −49, Nematodirus helvetianus (3,000-6,000 infective L3 per animal) on Dat −28, Haemonchus placei (5,000-7,000 infective L3 per animal) on Dat −28, Dictyocaulus viviparus (1,000-2,000 infective L3 per animal) on Dat −28, Ostertagia ostertagi (10,000-20,000 infective L3 per animal) on Dat −21, Trichostrongylus axei (10,000-20,000 infective L3 per animal) on Dat −21, Cooperia punctata (10,000-20,000 infective L3 per animal) on Dat −28, and Cooperia oncophora (10,000-20,000 infective L3 per animal) on Dat −21. The test compound was administered alone at a dose of 3 or 6 mg/kg orally or subcutaneously or subcutaneously at a dose of 6 mg/kg in combination with ivermectin at a dose of 50 mcg/kg. For oral administration, test compounds were formulated at a concentration of 10 mg/mL in DMSO/Corn oil (1:1). For subcutaneous administration, test compounds were formulated in propylene glycol/glycerol formal (60:40). All treatments were administered at Day 0. At necropsy on Day 14/15, the abomasa, small intestine and large intestine were removed and processed for parasite recovery. Nematode counts were conducted on appropriate aliquots. Efficacy was calculated for each nematode species by calculating the percent efficacy as 100[(C−T)/C], where C is the mean count among untreated controls and T is the count of the treated animals. Compound number 3.024 provided >95% efficacy against Haemonchus placei, Ostertagia ostertagi, Trichostrongylus axei, Cooperia punctata, Oesophagostomum radiatum and Nematodirus helvetianus at a dose as low as 3 mg/kg administered orally. […]

[5] = tested on: ivermectin-resistant Ostertagia circumcincta; experiment: Method I: sheep in vivo, ivermectin-resistant Ostertagia circumcincta; settings: ivermectin orally at 0.2 mg/kg
Description: as §1, §2

Nematodirus helvetianus = experiment: Method H: cattle in vivo, Nematodirus helvetianus; settings: ivermectin alone, 0.2 mg/kg (200 μg/kg) subcutaneously
Description: as §3, §4

[6] = tested on: ivermectin-resistant Haemonchus contortus; experiment: Method I: sheep in vivo, ivermectin-resistant Haemonchus contortus; settings: ivermectin orally at 0.2 mg/kg
Description: as §1, §2

CC(C#N)(Cn1nc2c(Cl)cc(Cl)c(Cl)c2n1)NC(=O)c1ccc(OC(F)(F)F)cc1 (single isomer, unassigned; (+)) [Compound 1.096, (+)-N-[1-Cyano-1-methyl-2-(4,5,7-trichloro-2H-benzotriazol-2-yl)-ethyl]-4-trifluoromethoxybenzamide]
inhibition at 0.0025 ppm (Haemonchus contortus [1]; test concentration 0.0025 ppm): ≥ 90%
inhibition in vivo at 1 mg/kg (Haemonchus contortus [2]; dose 1 mg/kg, necropsy 3 days after treatment): ≥ 95%

CC(C#N)(Cn1cc2ncc(Cl)cc2n1)NC(=O)c1ccc(OC(F)(F)F)cc1 (stereo not drawn) [Compound 3.005, N-[2-(6-Chloro-2H-pyrazolo[4,3-b]pyridin-2-yl)-1-cyano-1-methylethyl]-4-trifluoromethoxybenzamide]
inhibition in vivo at 0.3 mg/kg (Haemonchus contortus [2]): ≥ 95%

CC(C#N)(Cn1cc2ncc(Br)cc2n1)NC(=O)c1ccc(OC(F)(F)F)cc1 (stereo not drawn) [Compound 3.011, N-[2-(6-Bromo-2H-pyrazolo[4,3-b]pyridin-2-yl)-1-cyano-1-methylethyl]-4-trifluoromethoxybenzamide]
solubility [3]: 8600 µg/mL (≈ 18.4 mM)
inhibition in vivo at 0.3 mg/kg (Haemonchus contortus [2]): ≥ 95%

C[C@](C#N)(Cn1cc2ncc(Br)cc2n1)NC(=O)c1ccc(OC(F)(F)F)cc1 [Compound 3.025, (−)-N-[2-(6-Bromo-2H-pyrazolo[4,3-b]pyridin-2-yl)-1-cyano-1-methylethyl]-4-trifluoromethoxybenzamide]
inhibition at 0.3 ppm (Haemonchus contortus [1]; test concentration 0.3 ppm): < 90%
inhibition in vivo at 0.3 mg/kg (Haemonchus contortus [2]): < 95%

CC(C#N)(Cn1cc2ncc(Br)cc2n1)NC(=O)c1ccc(C(F)(F)F)cc1 (stereo not drawn) [Compound 3.047, N-[2-(6-Bromo-2H-pyrazolo[4,3-b]pyridin-2-yl)-1-cyano-1-methylethyl]-4-trifluoromethylbenzamide]
inhibition at 0.04 ppm (Haemonchus contortus [1]): ≥ 90%

CC(C#N)(Cn1cc2ncc(Br)cc2n1)NC(=O)c1ccc(Oc2ccccc2)cc1 (stereo not drawn) [Compound 3.048, N-[2-(6-Bromo-2H-pyrazolo[4,3-b]pyridin-2-yl)-1-cyano-1-methylethyl]-4-phenoxybenzamide]
inhibition at 0.01 ppm (Haemonchus contortus [1]): ≥ 90%

CC(C#N)(Cn1cc2ncc(Br)cc2n1)NC(=O)c1ccc(I)cc1 (stereo not drawn) [Compound 3.049, N-[2-(6-Bromo-2H-pyrazolo[4,3-b]pyridin-2-yl)-1-cyano-1-methylethyl]-4-iodobenzamide]
inhibition at 0.04 ppm (Haemonchus contortus [1]): ≥ 90%

CC(C#N)(Cn1cc2ncc(Br)cc2n1)NC(=O)c1ccc(-c2ccccc2)cc1 (stereo not drawn) [Compound 3.050, N-[2-(6-Bromo-2H-pyrazolo[4,3-b]pyridin-2-yl)-1-cyano-1-methylethyl]-biphenyl-4-carboxamide]
inhibition at 0.15 ppm (Haemonchus contortus [1]; test concentration 0.15 ppm): ≥ 90%

CCCCCCc1ccc(C(=O)NC(C)(C#N)Cn2cc3ncc(Br)cc3n2)cc1 (stereo not drawn) [Compound 3.051, N-[2-(6-Bromo-2H-pyrazolo[4,3-b]pyridin-2-yl)-1-cyano-1-methylethyl]-4-hexylbenzamide]
inhibition at 0.6 ppm (Haemonchus contortus [1]): ≥ 90%

COc1nc2cn(CC(C)(C#N)NC(=O)c3ccc(OC(F)(F)F)cc3)nc2cc1Br (stereo not drawn) [Compound 3.052, N-[2-(6-Bromo-5-methoxy-2H-pyrazolo[4,3-b]pyridin-2-yl)-1-cyano-1-methylethyl]-4-trifluoromethoxybenzamide]
inhibition at 0.01 ppm (Haemonchus contortus [1]): ≥ 90%

CC(C#N)(Cn1cc2ncc(Br)cc2n1)NC(=O)c1ccc(OC(F)(F)F)cc1F (stereo not drawn) [Compound 3.056, N-[2-(6-Bromo-2H-pyrazolo[4,3-b]pyridin-2-yl)-1-cyano-1-methylethyl]-2-fluoro-4-trifluoromethoxybenzamide]
inhibition at 0.04 ppm (Haemonchus contortus [1]): ≥ 90%

CC(C#N)(Cn1cc2ccnc(Br)c2n1)NC(=O)c1ccc(OC(F)(F)F)cc1 (stereo not drawn) [Compound 4.005, N-[2-(7-Bromo-2H-pyrazolo[3,4-c]pyridin-2-yl)-1-cyano-1-methylethyl]-4-trifluoromethoxybenzamide]
inhibition at 0.6 ppm (Haemonchus contortus [1]): ≥ 90%

CC(C#N)(Cn1cc2cc(Br)cnc2n1)NC(=O)c1ccc(OC(F)(F)F)cc1 (stereo not drawn) [Compound 5.001, N-[2-(5-Bromo-2H-pyrazolo[3,4-b]pyridin-2-yl)-1-cyano-1-methylethyl]-4-trifluoromethoxybenzamide]
inhibition at 0.6 ppm (Haemonchus contortus [1]): ≥ 90%

ivermectin [reference compound]
efficacy against ivermectin-resistant Trichostrongylus columbriformis [4]: less than 60%
efficacy against Haemonchus placei (ivermectin-resistant strain) (Haemonchus placei): less than 70%
efficacy against ivermectin-resistant Ostertagia circumcincta [5]: less than 30%
efficacy against Nematodirus helvetianus (Nematodirus helvetianus): less than 30%
activity against ivermectin-resistant Haemonchus contortus [6]: almost completely inactive
